From PubChem BioAssay (NCI)
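Tested at 5 concentrations; 48 h exposure; 96-well plates; endpoints linearly interpolated, else capped at highest concentration. Here, GI50 denotes the concentration required for 50% inhibition of growth. TGI: total growth inhibition.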

Key:
Assay in all cases: inhibition of tumour cell growth, NCI panel, 48 h
[1] = test system: HOP-62 NSCLC
[2] = test system: MALME-3M melanoma
[3] = test system: KM12 colon
[4] = test system: SW-620 colon
[5] = test system: K-562 leukemia
[6] = test system: SF-539 CNS
[7] = test system: SN12C renal
[8] = test system: SNB-75 CNS
[9] = test system: CCRF-CEM leukemia
[10] = test system: MCF7 breast

## CC1(C)C(=O)C(C)(C)C1=NNC(N)=S
[1]
  TGI: > 100 µM
[2]
  TGI: > 100 µM
[3]
  TGI: > 100 µM
[4]
  TGI: > 100 µM
[5]
  TGI: > 100 µM
[6]
  TGI: > 100 µM
[7]
  TGI: > 100 µM
[8]
  TGI: > 100 µM

## c1ccc2c(c1)Cc1c(Cc3csc4ccccc34)ccc3cccc-2c13
[1]
  TGI: > 100 µM
[2]
  TGI: > 100 µM
[3]
  TGI: > 100 µM
[4]
  TGI: > 100 µM
[9]
  TGI: > 100 µM
[5]
  TGI: > 100 µM
[6]
  TGI: > 100 µM
[7]
  TGI: > 100 µM
[8]
  TGI: > 100 µM

## Clc1ccc2c(c1)N(C1CCCN(Cc3ccccc3)C1)c1ccccc1S2 (stereo not given)
[1]
  GI50: 22.3 µM
  TGI: > 100 µM
[2]
  GI50: 3.88 µM
  TGI: 39.9 µM
[3]
  GI50: 4.73 µM
  TGI: > 100 µM
[4]
  GI50: 2.98 µM
  TGI: 32.5 µM
[9]
  GI50: 4.89 µM
  TGI: > 100 µM
[5]
  GI50: 3.19 µM
  TGI: > 100 µM
[6]
  GI50: 4.61 µM
  TGI: 56.2 µM
[7]
  GI50: 5.79 µM
  TGI: > 100 µM
[10]
  GI50: 3.25 µM
  TGI: > 100 µM
[8]
  GI50: 4.11 µM
  TGI: > 100 µM

## COc1cc2c3c(n(CCCNCCCNCCN)c(=O)c2cc1OC)-c1cc2c(cc1C3=O)OCO2
[3]
  GI50: 85 µM
  TGI: > 100 µM
[4]
  GI50: 30.8 µM
  TGI: > 100 µM
[9]
  GI50: 10.1 µM
  TGI: 32.2 µM
[6]
  GI50: 37.9 µM
  TGI: > 100 µM
[7]
  GI50: 19.8 µM
  TGI: 64.3 µM
[10]
  GI50: 32.5 µM
  TGI: > 100 µM
[8]
  GI50: 28.9 µM
  TGI: 94.6 µM

## COC1C=COC2(C)Oc3c(C)c(O)c4c(O)c(c(C5SCCS5)c(O)c4c3C2=O)NC(=O)/C(C)=C\C=CC(C)C(O)C(C)C(O)C(C)C(OC(C)=O)C1C (stereo not given)
[1]
  TGI: 46 µM
[2]
  TGI: 26.7 µM
[3]
  TGI: 30.6 µM
[4]
  TGI: 20.1 µM
[9]
  TGI: 5.33 µM
[6]
  TGI: 20.9 µM
[7]
  TGI: 10.1 µM
[10]
  TGI: 24.2 µM
[8]
  TGI: 20.5 µM

## CC(=O)Nc1ccc(S(=O)(=O)N=S(C)C)cc1
[1]
  TGI: > 100 µM
[2]
  TGI: > 100 µM
[3]
  TGI: > 100 µM
[4]
  TGI: > 100 µM
[9]
  TGI: > 100 µM
[5]
  TGI: > 100 µM
[6]
  TGI: > 100 µM
[7]
  TGI: > 100 µM
[10]
  TGI: > 100 µM
[8]
  TGI: > 100 µM

## O=C(CCC(=O)Nc1cccc(C(F)(F)F)c1)CC(=O)c1ccc2ccccc2c1
[2]
  TGI: > 100 µM
[3]
  TGI: > 100 µM
[4]
  TGI: > 100 µM
[9]
  TGI: > 100 µM
[5]
  TGI: > 100 µM
[6]
  TGI: > 100 µM
[7]
  TGI: > 100 µM

## CC1=CP(=O)(c2ccccc2)C=C(C)C1=C(Cl)Cl (stereo not given)
[1]
  TGI: 12.5 µM
[3]
  TGI: 14.9 µM
[4]
  TGI: 16.6 µM
[9]
  TGI: 19.2 µM
[5]
  TGI: 13.6 µM
[6]
  TGI: 88.6 µM
[7]
  TGI: 81.8 µM
[8]
  TGI: > 100 µM

## CC(C)COC1Sc2ccccc2S1
[1]
  TGI: 41.3 µM
[2]
  TGI: 57.2 µM
[4]
  TGI: 88.3 µM
[9]
  TGI: > 100 µM
[7]
  TGI: 36.2 µM
[8]
  TGI: 6.36 µM

## C(=C\C(Sc1ccccc1)c1ccccc1)/NNC1=NC(c2ccccc2)C(c2ccccc2)=NN1 (stereo not given)
[1]
  TGI: > 100 µM
[2]
  TGI: > 100 µM
[3]
  TGI: > 100 µM
[4]
  TGI: > 100 µM
[9]
  TGI: 49.5 µM
[5]
  TGI: 38 µM
[6]
  TGI: > 100 µM
[7]
  TGI: > 100 µM
[8]
  TGI: > 100 µM
